Measured values published in ChEMBL document CHEMBL1137940, “Discovery of thiophene-2-carboxylic acids as potent inhibitors of HCV NS5B polymerase and HCV subgenomic RNA replication. Part 2: tertiary amides” (Bioorg Med Chem Lett, 2004).

Columns and labels:
Genome polyprotein = Genome polyprotein (Hepatitis C virus genotype 1a (isolate 1) (HCV), UniProt P26664); test: In vitro inhibition of Hepatitis C polymerase.
Huh-7 [1] = test: Tested for inhibition of replication of HCV RNA subgenomic replicons in Huh-7 cells by replicon assay; format: functional, cell-based, Homo sapiens
Huh-7 [2] = test: Tested for cytotoxic effect to Huh-7 cells containing HCV RNA subgenomic replicons; format: functional; conditions: Homo sapiens
Huh-7 [3] = test: Tested for inhibition of replication of HCV RNA subgenomic replicons in Huh-7 cells by real time PCR; format: functional, cell-based; conditions: Homo sapiens

Chain of Genome polyprotein (P26664 2421-3011 limits assumed): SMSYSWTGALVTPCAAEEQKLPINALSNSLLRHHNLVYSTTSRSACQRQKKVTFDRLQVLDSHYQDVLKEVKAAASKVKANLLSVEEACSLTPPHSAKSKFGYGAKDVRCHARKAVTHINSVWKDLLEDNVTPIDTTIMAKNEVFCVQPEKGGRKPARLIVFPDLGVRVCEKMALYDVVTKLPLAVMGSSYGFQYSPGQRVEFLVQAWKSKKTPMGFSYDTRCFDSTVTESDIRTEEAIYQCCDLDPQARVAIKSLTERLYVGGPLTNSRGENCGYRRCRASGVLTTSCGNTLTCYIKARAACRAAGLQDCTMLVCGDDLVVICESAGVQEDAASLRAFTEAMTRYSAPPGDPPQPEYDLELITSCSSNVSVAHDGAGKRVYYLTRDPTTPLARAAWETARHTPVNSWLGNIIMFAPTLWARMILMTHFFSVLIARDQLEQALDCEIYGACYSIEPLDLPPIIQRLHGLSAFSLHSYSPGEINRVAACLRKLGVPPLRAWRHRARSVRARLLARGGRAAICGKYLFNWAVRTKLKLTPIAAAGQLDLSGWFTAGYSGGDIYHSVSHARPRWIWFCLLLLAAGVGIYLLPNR

Row | SMILES | IC50 (Genome polyprotein) [µM] | IC50 (Huh-7 [1]; Homo sapiens, Huh-7) [µM] | CC50 (Huh-7 [2]) [µM] | IC50 (Huh-7 [3]) [µM] | IC50 (Huh-7 [1]; huh-7) [µM]
1 | CN(C(=O)c1ccc(Cl)cc1)c1cc(-c2ccccc2)sc1C(=O)O | 1.2 | 19 | 88 |  | 
2 | Cc1ccc(C(=O)N(C)c2cc(-c3ccccc3)sc2C(=O)O)c(C)c1 | 1.4 | 16 | 160 |  | 
3 | CN(C(=O)c1ccc(C(F)(F)F)cc1)c1cc(-c2ccccc2)sc1C(=O)O | 34 | > 50 |  |  | 
4 | CC(C)N(C(=O)C1CCCCC1)c1cc(-c2ccccc2)sc1C(=O)O | 9 | 15 | 69 |  | 
5 | Cc1ccc(C(=O)N(c2cc(-c3ccccc3)sc2C(=O)O)C(C)C)cc1 | 3 | 5 | > 200 |  | 
6 | CCN(C(=O)c1ccc(C)cc1)c1cc(-c2ccccc2)sc1C(=O)O | 2 | 12 | 100 |  | 
7 | Cc1ccccc1C(=O)N(C)c1cc(-c2ccccc2)sc1C(=O)O | 21 |  |  |  | 
8 | CN(C(=O)c1ccccc1)c1cc(-c2ccccc2)sc1C(=O)O | > 32 |  |  |  | 
9 | CC1CCC(C(=O)N(c2cc(-c3ccccc3)sc2C(=O)O)C(C)C)CC1 (stereo in doubt; 16) | 1.5 |  | 123 | 0.3 | 0.6
10 | Cc1cccc(C(=O)N(C)c2cc(-c3ccccc3)sc2C(=O)O)c1 | > 50 | > 100 | > 200 |  | 
11 | CC(C)N(C(=O)c1ccc(Cl)cc1Cl)c1cc(-c2ccccc2)sc1C(=O)O | 1.2 | 8.9 | 62 |  | 
12 | CCc1ccc(C(=O)N(C)c2cc(-c3ccccc3)sc2C(=O)O)cc1 | > 50 | > 100 |  |  | 
13 | Cc1ccc(C(=O)N(C)c2cc(-c3ccccc3)sc2C(=O)O)cc1 | 2 | 22 | > 200 |  | 
14 | Cc1ccc(C(=O)Nc2cc(-c3ccccc3)sc2C(=O)O)cc1 |  | > 100 | 118 |  | 
15 | CC1CCC(C(=O)N(c2cc(-c3ccccc3)sc2C(=O)O)C(C)C)CC1 (stereo in doubt; 17) | 24 |  |  |  | > 50
16 | Cc1ccc(S(=O)(=O)N(C)c2cc(-c3ccccc3)sc2C(=O)O)c(C)c1 | 5 | 35 | 115 |  | 
17 | Cc1ccc(C(=O)N(C)c2cc(-c3ccccc3)sc2C(=O)O)cc1C | > 50 |  |  |  | 
18 | Cc1ccc(S(=O)(=O)Nc2cc(-c3ccccc3)sc2C(=O)O)c(C)c1 |  | 5 | 57 |  | 
